The source of these data is US20160270397A1, “Herbicidal Composition Comprising ACC Inhibitors” (BASF SE, priority 2013, published 2016).

Where two headings read alike, the source gives them in different places.

One experiment has as its system AMARE. As to the kind of experiment: Greenhouse post-emergence treatment, herbicidal activity against AMARE. The class given is in vivo, Amaranthus retroflexus L. The procedure: (§1) The culture containers used were plastic pots containing loamy sand with approximately 2-3.0% of organic matter. The seeds of the test plants were sown separately for each species.
(§2) For the post-emergence treatment, the test plants were grown to a plant height of from 3 to 15 cm, depending on the plant habit, and only then treated with the active compounds which had been suspended or emulsified in water. To this end, the test plants were either sown directly, and grown in the same containers, or they were first grown separately as seedlings and transplanted into the test containers a few days prior to treatment.
(§3) Depending on the species, the plants were kept at 10-25° C. and 20-35° C., respectively. The test period extended over 1 to 4 weeks. During this time, the plants were tended and their response to the individual treatments was evaluated.
(§4) Evaluation was carried out using a scale from 0 to 100. 100 means no emergence of the plants, or complete destruction of at least the above-ground parts, and 0 means no damage or normal course of growth.

The next experiment has as its system BRADE. As to the kind of experiment: Greenhouse post-emergence treatment, herbicidal activity against BRADE. The class given is in vivo, Brachiaria deflexa. Here is the method: as §1, §2, §3, §4
The test system of the next experiment is COMBE. As to the kind of experiment: Greenhouse post-emergence treatment, herbicidal activity against COMBE. The class given is in vivo, Commelina benghalensis. Here is the method: as §1, §2, §3, §4
For a further experiment, the system named is IPOHE. As to the kind of experiment: Greenhouse post-emergence treatment, herbicidal activity against IPOHE. The class given is in vivo, Ipomoea hederacea. Here is the method: as §1, §2, §3, §4
The next experiment deals with LEFFA. As to the kind of experiment: Greenhouse post-emergence treatment, herbicidal activity against LEFFA. The class given is in vivo, Leptochloa fusca subsp. Fascicularis. The procedure:
as §1, §2, §3, §4

A further experiment deals with PHACA. As to the kind of experiment: Greenhouse post-emergence treatment, herbicidal activity against PHACA. The class given is in vivo, Phalaris canariensis L. Here is the method: as §1, §2, §3, §4
A further experiment concerns SEBEX. As to the kind of experiment: Greenhouse post-emergence treatment, herbicidal activity against SEBEX. The class given is in vivo, Sesbania exaltata. Here is the method:
as §1, §2, §3, §4

The next experiment concerns SETVI. As to the kind of experiment: Greenhouse post-emergence treatment, herbicidal activity against SETVI. The class given is in vivo, Setaria viridis L. Here is the method: as §1, §2, §3, §4

Regarding `CCCC(=NOCC)C1=C(O)CC(C2CCCSC2)CC1=O` (stereo not shown) [a1.19, cycloxydim], the “herbicidal activity against AMARE, found” value is 0% in the experiment on AMARE (Example 2, a1.19 10 g/ha a.i.) and 0% in the experiment with AMARE (Example 6, a1.19 10 g/ha a.i.). Moreover, the “herbicidal activity against BRADE, found” value in the experiment with BRADE (a1.19 10 g/ha a.i.) is recorded as 65%. The “herbicidal activity against COMBE, found” value in the experiment with COMBE (a1.19 10 g/ha a.i.) came out at 0%. Besides, the “herbicidal activity against IPOHE, found” value in the experiment with IPOHE (Example 1, a1.19 10 g/ha a.i.) amounted to 10%; with IPOHE (Example 6, a1.19 10 g/ha a.i.), 10%; in the experiment on IPOHE (a1.19 5 g/ha a.i.), 0%. In addition, the pest or weed control at 5 g/ha with LEFFA (Diplachne fusca, a1.19 5 g/ha a.i., read-out: herbicidal activity against LEFFA, found) came out at 50%.

With `O=C(O)COc1nc(Cl)c(Cl)cc1Cl` [b7.6, triclopyr], the pest or weed control at 50 g/ha with LEFFA (Diplachne fusca, b7.6 50 g/ha a.i., read-out: herbicidal activity against LEFFA, found) was found to be 20%. The “herbicidal activity against PHACA, found” value in the experiment on PHACA (b7.6 50 g/ha a.i.) turned out to be 0%. Further, in the experiment with SEBEX (b7.6 50 g/ha a.i.), the “herbicidal activity against SEBEX, found” value amounted to 50%.

For `COc1c(Cl)ccc(Cl)c1C(=O)O` [b7.2, dicamba], the pest or weed control at 250 g/ha in the experiment with LEFFA (Diplachne fusca, b7.2 250 g/ha a.i., read-out: herbicidal activity against LEFFA, found) is 25%.

As for `CC(C)N(C)S(=O)(=O)NC(=O)c1cc(-n2c(=O)cc(C(F)(F)F)n(C)c2=O)c(F)cc1Cl` [b4.3, saflufenacil], the pest or weed control at 2.5 g/ha in the experiment with LEFFA (Diplachne fusca, Example 11, b4.3 2.5 g/ha a.i., read-out: herbicidal activity against LEFFA, found) was 65%. In addition, the “herbicidal activity against LEFFA, found” value in the experiment on LEFFA (Example 12, b4.3 2.5 g/ha a.i.) is recorded as 65%.

Consider `COc1cnc(OC)n2nc(NS(=O)(=O)c3c(OCC(F)F)cccc3C(F)(F)F)nc12` [b2.12, penoxsulam], for which the “herbicidal activity against IPOHE, found” value came out at 80% with IPOHE (Example 3, b2.12 8 g/ha a.i.) and 80% in the experiment on IPOHE (Example 4, b2.12 8 g/ha a.i.). Moreover, in the experiment with LEFFA (Diplachne fusca, b2.12 8 g/ha a.i., read-out: herbicidal activity against LEFFA, found), the pest or weed control at 8 g/ha worked out at 0%.

In the case of `COc1cc(OC)nc(NC(=O)NS(=O)(=O)c2c(-c3nnn(C)n3)cnn2C)n1` [b2.1, azimsulfuron], the “herbicidal activity against COMBE, found” value in the experiment with COMBE (b2.1 5 g/ha a.i.) came to 0%. Also, the “herbicidal activity against IPOHE, found” value with IPOHE (b2.1 10 g/ha a.i.) is 90%.

Regarding `CC1(C)CON(Cc2ccccc2Cl)C1=O` [b5.1, clomazone], the “herbicidal activity against COMBE, found” value with COMBE (b5.1 75 g/ha a.i.) is given as 70%. Also, the “herbicidal activity against SETVI, found” value with SETVI (b5.1 75 g/ha a.i.) was determined as 15%.

As to `COc1cc(OC)nc(NC(=O)NS(=O)(=O)Cc2ccccc2C(=O)O)n1` [b2.2, bensulfuron], the “herbicidal activity against AMARE, found” value in the experiment with AMARE (b2.2 31 g/ha a.i.) is recorded as 80%. Besides, in the experiment on BRADE (b2.2 31 g/ha a.i.), the “herbicidal activity against BRADE, found” value is 0%.

In the case of `C[C@@H](Oc1ccc(Oc2cnc3cc(Cl)ccc3n2)cc1)C(=O)O` [a1.14, quizalofop-P], in the experiment with AMARE (a1.14 7.5 g/ha a.i.), the “herbicidal activity against AMARE, found” value worked out at 20%. Moreover, the “herbicidal activity against COMBE, found” value in the experiment with COMBE (a1.14 10 g/ha a.i.) and in the experiment on COMBE (a1.14 15 g/ha a.i.) was 0% throughout. Moreover, the “herbicidal activity against IPOHE, found” value stood at 0% in the experiment with IPOHE (Example 3, a1.14 12 g/ha a.i.) and 5% with IPOHE (Example 5, a1.14 12 g/ha a.i.). For the same compound, the “herbicidal activity against LEFFA, found” value in the experiment on LEFFA (Example 10, a1.14 10 g/ha a.i.) turned out to be 40%; with LEFFA (Example 11, a1.14 10 g/ha a.i.) it was 40%; with LEFFA (Example 12, a1.14 10 g/ha a.i.) it was 40%; in the experiment with LEFFA (Example 13, a1.14 10 g/ha a.i.), 40%; in the experiment on LEFFA (a1.14 15 g/ha a.i.), 65%. Further, the “herbicidal activity against PHACA, found” value in the experiment with PHACA (a1.14 15 g/ha a.i.) is 65%. In the experiment with SEBEX (a1.14 15 g/ha a.i.), the “herbicidal activity against SEBEX, found” value turned out to be 0%. The “herbicidal activity against SETVI, found” value in the experiment with SETVI (a1.14 7.5 g/ha a.i.) is reported as 75%; in the experiment with SETVI (a1.14 15 g/ha a.i.), 85%.

In the case of `CC(C)N1C(=O)c2ccccc2NS1(=O)=O` [b3.1, bentazone], in the experiment with COMBE (b3.1 250 g/ha a.i.), the “herbicidal activity against COMBE, found” value turned out to be 95%. In addition, the pest or weed control at 250 g/ha with LEFFA (Diplachne fusca, b3.1 250 g/ha a.i., read-out: herbicidal activity against LEFFA, found) was determined as 10%.

Turning to `O=C(O)c1c(Cl)ccc2cc(Cl)cnc12` [b7.5, quinclorac], in the experiment with AMARE (b7.5 180 g/ha a.i.), the “herbicidal activity against AMARE, found” value worked out at 50%. For the same compound, in the experiment on COMBE (b7.5 7.5 g/ha a.i.), the “herbicidal activity against COMBE, found” value is given as 0%. The pest or weed control at 75 g/ha in the experiment with LEFFA (Diplachne fusca, Example 12, b7.5 75 g/ha a.i., read-out: herbicidal activity against LEFFA, found) was found to be 65%. For the same compound, in the experiment on LEFFA (Example 13, b7.5 75 g/ha a.i.), the “herbicidal activity against LEFFA, found” value was determined as 65%. Moreover, the “herbicidal activity against SETVI, found” value with SETVI (b7.5 90 g/ha a.i.) was determined as 65%.

Consider `COc1cc(OC)nc(Oc2cccc(Oc3nc(OC)cc(OC)n3)c2C(=O)O)n1` [b2.13, bispyribac], for which the “herbicidal activity against AMARE, found” value in the experiment with AMARE (b2.13 5 g/ha a.i.) worked out at 90%. Also, the “herbicidal activity against IPOHE, found” value in the experiment on IPOHE (Example 5, b2.13 5 g/ha a.i.) is 75%; with IPOHE (Example 6, b2.13 5 g/ha a.i.), 75%. Moreover, the pest or weed control at 5 g/ha in the experiment on LEFFA (Diplachne fusca, Example 10, b2.13 5 g/ha a.i., read-out: herbicidal activity against LEFFA, found) was 65%. Moreover, in the experiment on LEFFA (Example 11, b2.13 5 g/ha a.i.), the “herbicidal activity against LEFFA, found” value turned out to be 65%.
